The test system of one assay is MSSA (SH1000). Description: MIC against methicillin-susceptible S. aureus (MSSA). The format is cell-based. As to conditions: Staphylococcus aureus; MSSA (SH1000); 72 hours, 37 °C; read-out: MIC. Here is the method:
(§1) The term “minimum inhibitory concentration (MIC)” means the lowest concentration of an antimicrobial agent that will inhibit the visible growth of a microorganism after overnight incubation. MIC values against bacteria, for example, the Gram-positive Staphylococcus aureus and Enterococcus faecalis and the Gram-negative Escherichia coli and Pseudomonas aeruginosa were determined by standard methods. See also P. A. Wayne, Methods for Dilution Antimicrobial Tests for Bacteria that Grow Aerobically; Approved Standard, Ninth Edition, 2012, CLSI Document M07-A9, Vol. 32 No. 2.
(§2) Biological testing procedures were adapted from prior work by Melander and coworkers. For all biological assays, laboratory strains of methicillin-susceptible Staphylococcus aureus MSSA (SH1000), Staphylococcus aureus CA-MRSA (USA300-0114), Staphylococcus aureus HA-MRSA (ATCC 33591), Escherichia coli (MC4100), Enterococcus faecalis (OG1RF), Acinetobacter baumannii (ATCC 17978), were grown with shaking at 37 °C overnight from freezer stocks in 5 mL of the indicated media: SH1000, OG1RF, MC4100, USA300-0114, and ATCC 17978 were grown in BDTM Mueller-Hinton broth (MHB), whereas ATCC 33591 was grown in BDTM tryptic soy broth (TSB). The inoculum were then streaked onto Mueller-Hinton agar (MHA) plates and grown overnight at 37 °C. From the plates, single colonies were selected, diluted into 50 mL of fresh media and grown overnight at 37 °C with shaking for use in the MIC assays. Optical density (OD) measurements were obtained using a SpectraMax iD3 plate reader (Molecular Devices, United States).
(§3) Compounds were serially diluted two-fold from stock solutions (1.0 mM) to yield twelve 100 μL test concentrations, wherein the starting concentration of dimethyl sulfoxide (DMSO) was 2.5%. Overnight S. aureus, E. faecalis, E. coli, A. baumannii, USA300-0114 (CA-MRSA), and ATCC 33591 (HA-MRSA) cultures were diluted to ca. 10^6 CFU/mL in MHB or TSB and regrown to mid-exponential phase, as determined by optical density recorded at 600 nm (OD600). All cultures were then diluted again to ca. 10^6 CFU/mL and 100 μL were inoculated into each well of a U-bottom 96-well plate (Corning, 351177) containing 100 μL of compound solution. Plates were incubated statically at 37 °C for 72 hours upon which wells were evaluated visually for bacterial growth. The MIC was determined as the lowest concentration of compound resulting in no bacterial growth visible to the naked eye, based on the highest value in three independent experiments. Aqueous DMSO controls were conducted as appropriate for each compound.
(§4) The prepared library of biscationic amphiphilic compounds was assessed for performance as antibacterial disinfectants by determining the minimum inhibitory concentration (MIC) for each against a panel of bacteria. The bacteria selected for the study were chosen to evaluate the broad spectrum antimicrobial performance of the QPCs, and therefore, included both Gram-positive and Gram-negative bacterial strains, including those with known antimicrobial resistance mechanisms. These bacteria include the Gram-positive strains of methicillin-susceptible Staphylococcus aureus [MSSA; SH1000], community-acquired methicillin-resistant Staphylococcus aureus [CA-MRSA; USA 300-0114], hospital-acquired methicillin-resistant Staphylococcus aureus [HA-MRSA; ATCC 33591] and the […], Escherichia coli [MC4100], Acinetobacter baumannii [ATCC 17498] and Pseudomonas aeruginosa [PAO1].

In another assay the test system is HA-MRSA (ATCC 33591). In words: MIC against hospital-acquired methicillin-resistant S. aureus (HA-MRSA). Type of assay: cell-based. The conditions noted are these: Staphylococcus aureus, 72 h. The procedure: as §1, §2, §3, §4
A further assay relates to E. faecalis (OG1RF). In words: MIC against E. faecalis. Type of assay: cell-based. As to conditions: Enterococcus faecalis, 72 h. The procedure:
as §1, §2, §3, §4

The next assay has as its system E. coli (MC4100). Description: MIC against E. coli. The conditions noted are these: Escherichia coli, 72 hours, 37 °C. The format is cell-based. Here is the method: as §1, §2, §3, §4
Assay [1] concerns A. baumannii. Description: MIC against A. baumannii. Type of assay: cell-based. As to conditions: Acinetobacter baumannii, 72 h. The procedure:
as §1, §2, §3, §4

For a further assay, the system named is P. aeruginosa (PAO1). In words: MIC against P. aeruginosa. Type of assay: cell-based. The conditions noted are these: Pseudomonas aeruginosa; P. aeruginosa (PAO1); 72 hours, 37 °C; read-out: MIC. The procedure:
as §1, §2, §3, §4

Another assay has as its system HA-MRSA. In words: MBEC, biofilm eradication, HA-MRSA. Type of assay: cell-based, Staphylococcus aureus. As to conditions: 24 hours, 37 °C, TSB. The procedure: (§5) A regrowth assay was used to establish the MBEC of a compound to evaluate the antibiofilm activity.
(§6) Biofilm eradication experiments were performed using a pegged-lid microtiter plate assay to determine the MBEC values for compounds of interest, as previously described. […] Sci. Rep. 2017, 7, 2003; and Raval, Y. S., Flurin, L., Mohamed, A., Greenwood-Quaintance, K. E., Beyenal, H., & Patel, R. In Vitro Activity of Hydrogen Peroxide and Hypochlorous Acid Generated by Electrochemical Scaffolds Against Planktonic and Biofilm Bacteria. Antimicrob Agents Chemother. 2021, 65, e01966-20. Briefly, […] of mid-log phase culture diluted to ca. 10^6 CFU/mL in tryptic soy broth (TSB) was added to wells of plat-bottom 96-well plates (Thermo Scientific, 266120) and covered with 96-pegged lid (Thermo Scientific, 445497). Plates were incubated to establish bacterial biofilms after incubation at 37 °C for 24 hours. The pegged lid was then removed, washed with PBS, and transferred to another 96-well plate containing 2-fold serial dilutions of the test compounds (the “challenge plate”). The total volume in each well was […], comprising of […] of compound diluted in water/DMSO, with a starting DMSO concentration of 2.5%, and […] of TSB. Plates were incubated statically at 37 °C for 24 hours. Next, the pegged lids were transferred to a fresh 96-well plate containing […] of TSB and incubated overnight at 37 °C. MBEC values were determined as the lowest test concentration that resulted eradicated biofilm (i.e., wells displaying no turbidity in the final plate).

In the next assay the test system is E. faecalis. Description: MBEC, biofilm eradication, E. faecalis. The format is cell-based, Enterococcus faecalis. As to conditions: 24 hours, 37 °C, TSB. The procedure: as §5, §6
Assay [2] relates to A. baumannii. Description: MBEC, biofilm eradication, A. baumannii. The conditions noted are these: 24 hours, 37 °C, TSB. Type of assay: cell-based, Acinetobacter baumannii. The procedure: as §5, §6
For the next assay, the system named is panel of bacteria. Description: MIC across the panel of bacteria (Gram-positive and Gram-negative). Type of assay: cell-based. The conditions noted are these: over the bacterial panel. Here is the method:
as §1, §2, §3, §4

“Also recorded” adds a separate entry of the source.

As for `CCCCCCCCCCCC[N+](C)(C)CC[N+](C)(C)CCCCCCCCCCCC` [12(2)12, reference compound], the minimal inhibitory concentration (MIC) was determined as 2 µM in the assay with MSSA (SH1000); 1 µM against HA-MRSA (ATCC 33591); 8 µM in the assay on E. faecalis (OG1RF); 2 µM with E. coli (MC4100); 2 µM with A. baumannii [1]; 8 µM in the assay with P. aeruginosa (PAO1). For the same compound, the MBEC in the assay on HA-MRSA came to 4 µM; in the assay on E. faecalis, 8 µM; in the assay on A. baumannii [2] it was 4 µM. Further, the “antimicrobial activity / bioactivity (in words)” value in the assay with panel of bacteria is given as “almost identical bioactivity across the bacterial panel”.

Turning to `CCCCCCCCCCCC[P+](C)(C)CC[P+](C)(C)CCCCCCCCCCC` [^MeP2P-12,12], the MIC with MSSA (SH1000) was 2 µM; in the assay with HA-MRSA (ATCC 33591), 1 µM; with E. faecalis (OG1RF), 4 µM; in the assay with E. coli (MC4100), 4 µM; in the assay with A. baumannii [1], 8 µM; with P. aeruginosa (PAO1), 8 µM. In addition, the MBEC in the assay on HA-MRSA, with E. faecalis and with A. baumannii [2] was 8 µM in each case. Further, in the assay on panel of bacteria, the “antimicrobial activity / bioactivity (in words)” value is reported as “single-digit micromolar activity; also recorded: almost identical bioactivity across the bacterial panel”.

The values above are taken from patent US20260374792A1, “PHENYL-FREE BISCATIONIC QUATERNARY PHOSPHONIUM COMPOUNDS AS ANTIMICROBIAL AGENTS” (priority 2022, published 2026).
